One may read the EC50 as the concentration that produces a half-maximal response. By CC50 is commonly meant the concentration at which the toxic effect on the cells reaches its halfway point. A word on the IC50: it is the concentration that inhibits the measured activity by half.

These results are taken from patent US11952365B2, “Anti-viral compounds” (Aligos Therapeutics, Inc., priority 2020, dated 2024).

Bounds are passed on as bounds.

Data set [1] concerns human beta-coronavirus OC43. Kind of data set: microbe, parasite or virus in culture. It is filed as cell-based. The following applies: OC43 in HeLa cells, 6 days at 33° C., class symbols; read-out: EC50.
The subject of the next data set is HeLa cells. Kind of data set: Cytotoxicity plates without OC43 virus (cell-titer-glo). The data set is classed as cell-based, human. The following applies: class symbols. In short, it runs like this:
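HeLa cells seeded overnight, then treated with serially diluted compounds in 2% FBS EMEM, uninfected, in parallel with the OC43 antiviral plates. Incubated 6 days at 33 °C; viability read by CellTiter-Glo luminescence.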

For data set [2], the system named is SARS-CoV-2-GHB-03021/2020. Kind of data set: SARS-CoV-2 Infection Model in Huh7 Cells. It is filed as cell-based. To be noted: SARS-CoV-2, day 4 p.i., MTS, class symbols, read-out: Huh-7 (EC50).
The next data set concerns the target T1, human cathepsin L (Homo sapiens, UniProt P07711).
T1 construct: purchased R&D Systems
The data set can be described thus: cathepsin L assay. It is filed as biochemical. The following applies: 10 pM human cathepsin L, Z-FR-AMC 2 μM, class symbols. In short, it runs like this: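 Human cathepsin L at 10 pM was preincubated 30 min with compound, then reaction started with Z-FR-AMC (2 μM final). Fluorescence (355/460 nm) read every 2 min for 30 min; IC50 from four-parameter curve fit.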

The next data set relates to Huh7 cells. The following applies: read-out: Huh-7 (CC50), MTS, numeric bounds.
The test system of the next data set is Vero E6-eGFP cells. To be noted: read-out: VeroE6 + CP (CC50); Vero E6-eGFP cells with CP-100356, absence of virus, MTS; numeric bounds.
Data set [3] concerns the target T2, 3CLpro (Severe acute respiratory syndrome coronavirus 2, UniProt P0DTD1). Kind of data set: SARS-CoV-2 3CLpro protease assay (duplex, SAMDI-MS). The following applies: 3CLpro, 30 mins preincubation, class symbols; read-out: SARS-Cov-2 IC50. Details: For the duplex assay, 3CLpro and HRV3C was added. The data set is classed as biochemical.
For the next data set, the system named is SARS-CoV-2. To be noted: cited from earlier work.
Data set [4] concerns the target T2, 3CLpro. To be noted: cited from earlier work.

T1 sequence (P07711 114-333): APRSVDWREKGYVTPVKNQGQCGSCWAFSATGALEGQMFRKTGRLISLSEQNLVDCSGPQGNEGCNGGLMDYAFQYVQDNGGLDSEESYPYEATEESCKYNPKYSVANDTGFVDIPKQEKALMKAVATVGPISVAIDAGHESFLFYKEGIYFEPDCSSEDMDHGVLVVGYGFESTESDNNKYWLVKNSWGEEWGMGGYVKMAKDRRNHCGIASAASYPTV

With `O=C1NCC[C@H]1C[C@H](NC(=O)[C@@H]1[C@H]2CCC[C@H]2CN1C(=O)c1cc2c([nH]1)C1CCC2C1)C(=O)CO` (stereo partly drawn) [Compound 157, (1S,3aR,6aS)-2-{3-azatricyclo[5.2.1.0^{2,6}]deca-2(6),4-diene-4-carbonyl}-N-[(2S)-4-hydroxy-3-oxo-1-[(3S)-2-oxopyrrolidin-3-yl]butan-2-yl]-hexahydro-1H-cyclopenta[c]pyrrole-1-carboxamide], the EC50 in data set [1] was 0.1 to 1 µM; in [2] it was 1 to 10 µM. Besides, the CC50 in the data set on HeLa cells was over 10 µM; with Huh7 cells it was over 50 µM; in the data set on Vero E6-eGFP cells, over 50 µM. For the same compound, the half-inhibitory concentration (IC50) against human cathepsin L is at least 10 µM; on 3CLpro [3], 0.02 to 0.2 µM.
Turning to `CN1CCN(C(=O)N[C@@H](Cc2ccccc2)C(=O)N[C@H](/C=C/S(=O)(=O)c2ccccc2)CCc2ccccc2)CC1` [Compound K117777], the “inhibition of SARS-CoV-2” value in the data set on SARS-CoV-2 (in VeroE6, A549-ACE2 and/or HeLa-ACE2) is recorded as “potent inhibition”. Moreover, the antiviral effect entry in the data set on SARS-CoV-2 (when TMPRSS2 was expressed in A549-ACE2) is on record as “abolished”. For the same compound, the “inhibitory effect on the 3CLpro” value on 3CLpro [4] is given as “lacks an inhibitory effect”.
